Results reported in patent US9012159B2, “Cell based screening assays for the triglyceride synthesis pathway” (Janssen Research & Development, LLC, priority 2009, dated 2015).

What was measured:
HUH7 cells = experiment: Stable isotope (13C18-oleic acid) labeling of triglyceride synthesis with LC-MS detection in HUH7 cells; type: cell-based, human; conditions: for levels of 13C18-triolein relative to those of the control: 10 μM compound, about 90 minutes with 13C18-oleic acid, % of control (FIG. 3)
Description: (§1) The 3T3-L1 mouse preadipocyte cells were maintained in Dulbecco's Modified Eagles Medium (DMEM) with 10% fetal bovine serum (FBS). Cells were seeded in 96-well plates. Two days post confluency, the medium was changed to induction medium with IBMX, insulin, and dexamethasone (Adipolysis kit, Cayman Chemical Company). Three days after induction, the medium was changed to insulin medium (Adipolysis kit, Cayman Chemical Company). Five days after induction, the medium was replaced with fresh insulin medium for 2 days. Human hepatoma cell line HUH7 was maintained in DMEM with 10% FBS, 4.5 g/L D-glucose. Rat hepatoma cell line FU5AH was maintained in Minimum Essential Medium Eagle (MEM) with 5% FBS. The hepatoma cells were plated in 96 well plates and used at 80% confluence. Human breast cancer cell line MCF7 cells were maintained in DMEM with 10% FBS, 4.5 g/L D-glucose. Human monocytic leukemia cell line THP-1 was maintained in RPMI medium with 10% FBS and used at 5×10^5 cells/ml.
The HUH7 cells or the differentiated 3T3-L1 cells were incubated with DMEM with 10% charcoal-stripped FBS (Gibco) in 5% CO2 at 37° C. for overnight. The FU5AH cells were incubated with MEM with 5% charcoal-stripped FBS in 5% CO2 at 37° C. for overnight. About 100 μl of 300 μM ^13C18-oleic acid (SIGMA) precomplexed with 0.5% fatty acid free BSA (SIGMA) were added to the cell suspension in 5% CO2 at 37° C. for 0, 30, 60, 120 and 180 minutes. Then the cells were washed once with phosphate buffered saline and extracted with 100 μl of isopropyl alcohol. After incubating at room temperature for 10 minutes, the extraction was transferred to a glass vial and detected for labeled lipid molecules using the LC-MS system.
The LC-MS detection was conducted with Agilent 1100 Liquid Chromatographic system (Agilent Technologies, Palo Alto, Calif.) interfaced with a Micromass triple-quadrupole Quattro Micro mass spectrophotometer (Waters, Milford, Mass.) through a Z-spray electrospray ion source (ESI). Separation of the metabolites was performed on an Eclipse XDB-C8 column (2.1×50 mm, particle size=3.5 μm). Mobile Phase A, 50 mM ammonium formate in isopropanol-water (3:7), and mobile phase B, 10 mM ammonium formate in isopropanol-water (9:1) were used for a gradient elution as following: 20-100% Mobile Phase B for 1 min, hold 100% Mobile Phase B for 4 min, return to 20% Mobile Phase B for 0.1 min, then post run time of 4.5 min. The flow rate was 0.5 ml/min. […]
(§2) For evaluating compounds which modulate activity of DGAT1 or DGAT2, HUH7 or 3T3-L1 cells were preincubated with about 0, 0.03, 0.1, 0.3, 1, 3, or 10 μM Compounds 1 or 2 for about 10 minutes at 37° C. in 100 μl serum free medium with 0.05% DMSO. […] After incubation at 37° C. for about 90 minutes, cells were extracted and detected as described in Example 2.

[1] = tested on: differentiated 3T3-L1 cells; experiment: Stable isotope (13C18-oleic acid) labeling of triglyceride synthesis with LC-MS detection in differentiated 3T3-L1 cells; type: cell-based, mouse; conditions: differentiated 3T3-L1 cell line
Description: as §1, with “The hepatoma cells were plated in 96 well plates and used at 80% confluence. Human breast cancer cell line MCF7 cells were maintained in DMEM with 10% FBS, 4.5 g/L D-glucose. Human monocytic leukemia cell line THP-1 was maintained in RPMI medium with 10% FBS and used at 5×10^5 cells/ml.” left out
The HUH7 cells or the differentiated 3T3-L1 cells were incubated with DMEM with 10% charcoal-stripped FBS (Gibco) in 5% CO2 at 37° C. for overnight. […] After incubating at room temperature for 10 minutes, the extraction was transferred to a glass vial and detected for labeled lipid molecules using the LC-MS system. […]
as §2

MCF7 cells = experiment: Stable isotope (13C18-oleic acid) labeling of triglyceride synthesis with LC-MS detection in MCF7 cells; type: cell-based, human; conditions: compound 0.1-10 μM (concentration of the result not stated), about 3 hours with 13C18-oleic acid, % of control (FIG. 6)
Description: as §1
The LC-MS detection was conducted with Agilent 1100 Liquid Chromatographic system (Agilent Technologies, Palo Alto, Calif.) interfaced with a Micromass triple-quadrupole Quattro Micro mass spectrophotometer (Waters, Milford, Mass.) through a Z-spray electrospray ion source (ESI). […]
Next, the effects of Compound 2 in MCF7 cells were evaluated. […]

Compound	levels of 13C18-triolein relative to those of the control (HUH7 cells; HUH7 cell line)	levels of the newly synthesized 13C18-triolein in the presence of compound (HUH7 cells; HUH7 cell line, result in words)	13C18-oleoyl-diglyceride level (HUH7 cells; HUH7 cells incubated with compound (FIG. 5), result in words)	levels of 13C18-triolein relative to those of the control ([1]; about 10 μM compound, about 90 minutes with 13C18-oleic acid, % of control (FIG. 4))	levels of the newly synthesized 13C18-triolein in the presence of compound ([1]; result in words)	levels of 13C18-triolein relative to those of the control (MCF7 cells)
COc1ccc(CC(=O)Nc2ccc(N3CCN(C(=O)Nc4c(Cl)cc(CN5CCCC5)cc4Cl)CC3)cc2)cc1 [Compound 1, N-[2,6-Dichloro-4-(pyrrolidin-1-ylmethyl)phenyl]-4-(4-{[(4-methoxyphenyl)acetyl]amino}phenyl)piperazine-1-carboxamide]	about 30%	reduced levels	transient increase	about 33%	reduced levels	
COC(=O)c1[nH]c(=S)n(C(c2ccc(Cl)c(Cl)c2)C2CCCCC2)c1C(=O)OC (stereo not shown) [Compound 2, dimethyl 1-[cyclohexyl(3,4-dichlorophenyl)methyl]-2-thioxo-2,3-dihydro-1H-imidazole-4,5-dicarboxylate]	about 75%					about 80%
